# How the values were obtained:
# [1] = tested on: Italian ryegrass; assay: Test Example 4: herbicidal effect by soil treatment (Table 19, symbol K); type: in vivo, Italian ryegrass (Lolium multiflorum)
# Outline: (§1)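 Herbicidal effect was rated 3 weeks after treatment, using the scoring criteria of an earlier test. The compound, formulated as an emulsion and diluted in water to a set herbicide amount, had been sprayed uniformly on soil over freshly sown seeds. Growth took place in a greenhouse at 25° C. to 30° C.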
# [2] = tested on: southern crabgrass; assay: Test Example 5: herbicidal effect by foliage application, plastic box (Table 20, symbol F); type: in vivo, southern crabgrass (Digitaria ciliaris); details: foliage application, three weeks after application
# Outline: (§2)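 Foliar spray test: emulsion formulation diluted in water to a set application rate, sprayed onto 14-day-old plants raised in diluvial soil at 25° C to 30° C under glass. Both herbicidal effect and crop effect rated visually three weeks later.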
# [3] = tested on: wild oat; assay: Test Example 5: herbicidal effect by foliage application, plastic box (Table 20, symbol I); type: in vivo, wild oat (Avena fatua); details: foliage application, three weeks after application
# Outline: as §2
# [4] = tested on: rice flat sedge; assay: Test Example 3: herbicidal effect by foliage application, Wagner pot (Table 18, symbol E); type: in vivo, rice flat sedge (Cyperus iria)
# Outline: (§3)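 Plants were sown in alluvial soil held under 0.1–0.5 cm standing water and grown 14 days in a greenhouse at 25–30 °C. An emulsifiable formulation, water-diluted to the set dose, was then sprayed onto the foliage, and effects were scored three weeks later using previously defined criteria.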
# [5] = tested on: green foxtail; assay: Test Example 4: herbicidal effect by soil treatment (Table 19, symbol G); type: in vivo, green foxtail (Setaria viridis)
# Outline: as §1
# [6] = tested on: Japanese bulrush; assay: Test Example 1: herbicidal activity, application before weed generation under submerged conditions (Table 16, symbol B); type: in vivo, Japanese bulrush (Schoenoplectus juncoides)
# Outline: (§4)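 Alluvial soil was flooded to 4 cm depth, weed seeds were sown mixed and 2.5-leaf rice seedlings were transplanted. On sowing day, the compound's emulsion, diluted in water to a set dose, was applied to the water surface. Plants grew at 25–30 °C and were scored 0–5 after three weeks.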
# [7] = tested on: windgrass; assay: Test Example 4: herbicidal effect by soil treatment (Table 19, symbol L); type: in vivo, windgrass (Apera spica-venti)
# Outline: as §1
# [8] = tested on: wild oat; assay: Test Example 4: herbicidal effect by soil treatment (Table 19, symbol I); type: in vivo, wild oat (Avena fatua)
# Outline: as §1
# [9] = tested on: Japanese bulrush; assay: Test Example 2: herbicidal activity, application during weed generation under submerged conditions (Table 17, symbol B); type: in vivo, Japanese bulrush (Schoenoplectus juncoides); details: application during weed generation, submerged conditions
# Outline: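 Herbicide emulsion, diluted with water to the chosen amount, is applied onto 4 cm floodwater over alluvial soil where the weeds were co-sown and raised at 25–30° C. Application timing: 1–2 leaves. Assessment: three weeks afterwards.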
# [10] = tested on: windgrass; assay: Test Example 5: herbicidal effect by foliage application, plastic box (Table 20, symbol L); type: in vivo, windgrass (Apera spica-venti); details: foliage application, three weeks after application
# Outline: as §2
# [11] = tested on: oval-leafed pondweed; assay: Test Example 1: herbicidal activity, application before weed generation under submerged conditions (Table 16, symbol C); type: in vivo, oval-leafed pondweed (Monochoria vaginalis)
# Outline: as §4
# [12] = tested on: chickweed; assay: Test Example 4: herbicidal effect by soil treatment (Table 19, symbol P); type: in vivo, common chickweed (Stellaria media)
# Outline: as §1
# [13] = tested on: persian speedwell; assay: Test Example 5: herbicidal effect by foliage application, plastic box (Table 20, symbol R); type: in vivo, Persian speedwell (Veronica persica); details: foliage application, three weeks after application
# Outline: as §2
# [14] = tested on: lambsquarters; assay: Test Example 5: herbicidal effect by foliage application, plastic box (Table 20, symbol O); type: in vivo, lambsquarters (Chenopodium album); details: foliage application, three weeks after application
# Outline: as §2
# [15] = tested on: Chinese sprangletop; assay: Test Example 3: herbicidal effect by foliage application, Wagner pot (Table 18, symbol D); type: in vivo, chinese sprangletop (Leptochloa chinensis)
# Outline: as §3
# [16] = tested on: redroot pigweed; assay: Test Example 4: herbicidal effect by soil treatment (Table 19, symbol N); type: in vivo, redroot pigweed (Amaranthus retroflexus)
# Outline: as §1
# [17] = tested on: redroot pigweed; assay: Test Example 5: herbicidal effect by foliage application, plastic box (Table 20, symbol N); type: in vivo, redroot pigweed (Amaranthus retroflexus); details: foliage application, three weeks after application
# Outline: as §2
# [18] = amount of applied herbicide 323 g/ha
# [19] = amount of applied herbicide 320 g/ha
SMILES,"K: Italian ryegrass, herbicidal effect grade [1, 19]","F: southern crabgrass, herbicidal effect grade ([2]; 320 g/ha)","I: wild oat, herbicidal effect grade ([3]; 320 g/ha)",herbicidal effect on rice flat sedge (E) ([4]; 320 g/ha),"G: green foxtail, herbicidal effect grade [5, 19]","Herbicidal effect, B: Japanese bulrush [6, 19]","L: windgrass, herbicidal effect grade [7, 19]","I: wild oat, herbicidal effect grade [8, 19]","herbicidal effect rating, B: Japanese bulrush ([9]; AAH 320 g/ha)","L: windgrass, herbicidal effect grade ([10]; 320 g/ha)","Herbicidal effect, C: oval-leafed pondweed [11, 19]","P: chickweed, herbicidal effect grade [12, 19]","R: persian speedwell, herbicidal effect grade ([13]; 320 g/ha)","O: lambsquarters, herbicidal effect grade ([14]; 320 g/ha)",herbicidal effect on Chinese sprangletop (D) ([15]; 320 g/ha),"N: redroot pigweed, herbicidal effect grade [16, 19]","N: redroot pigweed, herbicidal effect grade ([17]; 320 g/ha)",also measured
CCCC(=O)Oc1c(C)nn(C)c(=O)c1-c1c(-c2ccccc2OCC)sc2cc(OCC)ccc12 [3-094],,,,,,,,,,,,,,,,,,"K: Italian ryegrass, herbicidal effect grade [1, 18]: 4 (Herbicidal rate of 70% or more and less than 90%); F: southern crabgrass, herbicidal effect grade ([2]; 323 g/ha): 4 (Herbicidal rate of 70% or more and less than 90%); I: wild oat, herbicidal effect grade ([3]; 323 g/ha): 5 (Herbicidal rate of 90% or more (almost completely withered)); herbicidal effect on rice flat sedge (E) ([4]; 323 g/ha): 5 (Herbicidal rate of 90% or more (almost completely withered)); G: green foxtail, herbicidal effect grade [5, 18]: 3 (Herbicidal rate of 40% or more and less than 70%); Herbicidal effect, B: Japanese bulrush [6, 18]: 5 (Herbicidal rate of 90% or more (almost completely withered)); L: windgrass, herbicidal effect grade [7, 18]: 4 (Herbicidal rate of 70% or more and less than 90%); I: wild oat, herbicidal effect grade [8, 18]: 0 (Herbicidal rate of 5% or less (almost no effect)); herbicidal effect rating, B: Japanese bulrush ([9]; AAH 323 g/ha): 4 (Herbicidal rate of 70% or more and less than 90%); L: windgrass, herbicidal effect grade ([10]; 323 g/ha): 5 (Herbicidal rate of 90% or more (almost completely withered)); Herbicidal effect, C: oval-leafed pondweed [11, 18]: 5 (Herbicidal rate of 90% or more (almost completely withered)); P: chickweed, herbicidal effect grade [12, 18]: 4 (Herbicidal rate of 70% or more and less than 90%); R: persian speedwell, herbicidal effect grade ([13]; 323 g/ha): 5 (Herbicidal rate of 90% or more (almost completely withered)); O: lambsquarters, herbicidal effect grade ([14]; 323 g/ha): 4 (Herbicidal rate of 70% or more and less than 90%); herbicidal effect on Chinese sprangletop (D) ([15]; 323 g/ha): 5 (Herbicidal rate of 90% or more (almost completely withered)); N: redroot pigweed, herbicidal effect grade [16, 18]: 5 (Herbicidal rate of 90% or more (almost completely withered)); N: redroot pigweed, herbicidal effect grade ([17]; 323 g/ha): 5 (Herbicidal rate of 90% or more (almost completely withered))"
CCCC(=O)Oc1c(C)nn(C)c(=O)c1-c1c(-c2ccc(F)cc2OCC)sc2cc(OCC)ccc12 [3-096],2 (Herbicidal rate of 20% or more and less than 40%),5 (Herbicidal rate of 90% or more (almost completely withered)),5 (Herbicidal rate of 90% or more (almost completely withered)),5 (Herbicidal rate of 90% or more (almost completely withered)),4 (Herbicidal rate of 70% or more and less than 90%),5 (Herbicidal rate of 90% or more (almost completely withered)),5 (Herbicidal rate of 90% or more (almost completely withered)),0 (Herbicidal rate of 5% or less (almost no effect)),5 (Herbicidal rate of 90% or more (almost completely withered)),5 (Herbicidal rate of 90% or more (almost completely withered)),5 (Herbicidal rate of 90% or more (almost completely withered)),5 (Herbicidal rate of 90% or more (almost completely withered)),5 (Herbicidal rate of 90% or more (almost completely withered)),5 (Herbicidal rate of 90% or more (almost completely withered)),5 (Herbicidal rate of 90% or more (almost completely withered)),5 (Herbicidal rate of 90% or more (almost completely withered)),5 (Herbicidal rate of 90% or more (almost completely withered)),
CCCOc1ccc2c(-c3c(O)c(C)nn(C)c3=O)c(-c3ccccc3OCC)sc2c1 [3-103],5 (Herbicidal rate of 90% or more (almost completely withered)),5 (Herbicidal rate of 90% or more (almost completely withered)),2 (Herbicidal rate of 20% or more and less than 40%),5 (Herbicidal rate of 90% or more (almost completely withered)),4 (Herbicidal rate of 70% or more and less than 90%),5 (Herbicidal rate of 90% or more (almost completely withered)),5 (Herbicidal rate of 90% or more (almost completely withered)),0 (Herbicidal rate of 5% or less (almost no effect)),3 (Herbicidal rate of 40% or more and less than 70%),4 (Herbicidal rate of 70% or more and less than 90%),5 (Herbicidal rate of 90% or more (almost completely withered)),5 (Herbicidal rate of 90% or more (almost completely withered)),5 (Herbicidal rate of 90% or more (almost completely withered)),4 (Herbicidal rate of 70% or more and less than 90%),5 (Herbicidal rate of 90% or more (almost completely withered)),4 (Herbicidal rate of 70% or more and less than 90%),5 (Herbicidal rate of 90% or more (almost completely withered)),
C=CCOc1ccc2c(-c3c(O)c(C)nn(C)c3=O)c(-c3ccccc3OC)sc2c1 [3-111],5 (Herbicidal rate of 90% or more (almost completely withered)),5 (Herbicidal rate of 90% or more (almost completely withered)),4 (Herbicidal rate of 70% or more and less than 90%),5 (Herbicidal rate of 90% or more (almost completely withered)),5 (Herbicidal rate of 90% or more (almost completely withered)),5 (Herbicidal rate of 90% or more (almost completely withered)),0 (Herbicidal rate of 5% or less (almost no effect)),3 (Herbicidal rate of 40% or more and less than 70%),3 (Herbicidal rate of 40% or more and less than 70%),5 (Herbicidal rate of 90% or more (almost completely withered)),5 (Herbicidal rate of 90% or more (almost completely withered)),3 (Herbicidal rate of 40% or more and less than 70%),5 (Herbicidal rate of 90% or more (almost completely withered)),5 (Herbicidal rate of 90% or more (almost completely withered)),3 (Herbicidal rate of 40% or more and less than 70%),5 (Herbicidal rate of 90% or more (almost completely withered)),5 (Herbicidal rate of 90% or more (almost completely withered)),

# Reference: patent US20230085307A1, “PYRIDAZINONE COMPOUND AND HERBICIDE” (NISSAN CHEMICAL CORPORATION, priority 2019, published 2023)
